# Experimental data from US11458123B2 (Arvinas, Inc., priority 2016, dated 2022).
# System: tau protein
# Test: Tau protein in vitro degradation assay (Western blot, Tau-13 antibody)
# Type: cell-based, human
# Settings: SK-N-SH cells; 72 hours of incubation; tested at 300 nM, 100 nM, 33 nM and 11 nM; Western blot, Tau-13 antibody
# Method in brief: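 SK-N-SH cells, seeded ≥18 h beforehand, were incubated 72 h with tau PROTACs at 1000, 300 and 100 nM or at 300, 100, 33 and 11 nM. Lysates in protease-inhibitor buffer were resolved by SDS-PAGE; tau quantified by Western blot with Tau-13 antibody recognising all human tau forms.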
row,SMILES,Degradation activity* (highest amount of degradation observed at any dosage; tau protein remaining)
1,"Cn1c2ccncc2c2ccc(-c3ccc(OCCCCCOCCCCCOC4CN(c5ccc6c(c5)C(=O)N(C5CCC(=O)NC5=O)C6=O)C4)nc3)cc21 (stereo not drawn) [Compound 79, 2-(2,6-dioxopiperidin-3-yl)-5-(3-((5-((5-((5-(5-methyl-5H-pyrido[4,3-b]indol-7-yl)pyridin-2-yl)oxy)pentyl)oxy)pentyl)oxy)azetidin-1-yl)isoindoline-1,3-dione]",A (≤50% tau protein remaining after 72 hours of incubation with the test compound)
2,"Cn1c2ccncc2c2ccc(-c3ccc(OCCCCCOCCCCCN4CC(Oc5ccc6c(c5)C(=O)N(C5CCC(=O)NC5=O)C6=O)C4)nc3)cc21 (stereo not drawn) [Compound 80, 2-(2,6-dioxopiperidin-3-yl)-5-((1-(5-((5-((5-(5-methyl-5H-pyrido[4,3-b]indol-7-yl)pyridin-2-yl)oxy)pentyl)oxy)pentyl)azetidin-3-yl)oxy)isoindoline-1,3-dione]",A (≤50% tau protein remaining after 72 hours of incubation with the test compound)
3,"O=C1CCC(N2C(=O)c3cc(F)c(OCCOCCOCCOCCOCCOc4ccc(-c5ccc6c(c5)[nH]c5ccncc56)cn4)cc3C2=O)C(=O)N1 (stereo not drawn) [Compound 81, 5-((14-((5-(5H-pyrido[4,3-b]indol-7-yl)pyridin-2-yl)oxy)-3,6,9,12-tetraoxatetradecyl)oxy)-2-(2,6-dioxopiperidin-3-yl)-6-fluoroisoindoline-1,3-dione]",A (≤50% tau protein remaining after 72 hours of incubation with the test compound)
4,"Cn1c2ccncc2c2ccc(-c3ccc(O[C@H]4C[C@H](OC5CCN(CCCCCOc6ccc7c(c6)C(=O)N(C6CCC(=O)NC6=O)C7=O)CC5)C4)nc3)cc21 (stereo partly drawn) [Compound 82, 2-(2,6-dioxopiperidin-3-yl)-5-((5-(4-((1r,3r)-3-((5-(5-methyl-5H-pyrido[4,3-b]indol-7-yl)pyridin-2-yl)oxy)cyclobutoxy)piperidin-1-yl)pentyl)oxy)isoindoline-1,3-dione]",C (>80% tau protein remaining after 72 hours of incubation with the test compound)
5,"O=C1CCC(N2C(=O)c3ccc(OCCCCCc4ccc(O[C@H]5C[C@H](Oc6ccc(-c7ccc8c(c7)[nH]c7ccncc78)cn6)C5)cn4)cc3C2=O)C(=O)N1 (stereo partly drawn) [Compound 83, 5-((5-(5-((1r,3r)-3-((5-(5H-pyrido[4,3-b]indol-7-yl)pyridin-2-yl)oxy)cyclobutoxy)pyridin-2-yl)pentyl)oxy)-2-(2,6-dioxopiperidin-3-yl)isoindoline-1,3-dione]",C (>80% tau protein remaining after 72 hours of incubation with the test compound)
6,"Cn1c2ccncc2c2ccc(-c3ccc(O[C@H]4C[C@H](Oc5cccc(OCCCCCCOc6ccc7c(c6)C(=O)N(C6CCC(=O)NC6=O)C7=O)c5)C4)nc3)cc21 (stereo partly drawn) [Compound 84, 2-(2,6-dioxopiperidin-3-yl)-5-((6-(3-((1r,3r)-3-((5-(5-methyl-5H-pyrido[4,3-b]indol-7-yl)pyridin-2-yl)oxy)cyclobutoxy)phenoxy)hexyl)oxy)isoindoline-1,3-dione]",C (>80% tau protein remaining after 72 hours of incubation with the test compound)
7,"Cn1c2ccncc2c2ccc(-c3ccc(OCCCCCOCCCCCO[C@H]4C[C@H](Oc5ccc6c(c5)C(=O)N(C5CCC(=O)NC5=O)C6=O)C4)nc3)cc21 (stereo partly drawn) [Compound 85, 2-(2,6-dioxopiperidin-3-yl)-5-((1r,3r)-3-((5-((5-((5-(5-methyl-5H-pyrido[4,3-b]indol-7-yl)pyridin-2-yl)oxy)pentyl)oxy)pentyl)oxy)cyclobutoxy)isoindoline-1,3-dione]",A (≤50% tau protein remaining after 72 hours of incubation with the test compound)
8,"O=C1CCC(N2C(=O)c3cccc(NCCOCCOCCOCCOCCOc4ccc(-c5ccc6c(c5)[nH]c5ccncc56)cc4)c3C2=O)C(=O)N1 (stereo not drawn) [Compound 86, 4-((14-(4-(5H-pyrido[4,3-b]indol-7-yl)phenoxy)-3,6,9,12-tetraoxatetradecyl)amino)-2-(2,6-dioxopiperidin-3-yl)isoindoline-1,3-dione]",C (>80% tau protein remaining after 72 hours of incubation with the test compound)
9,"O=C1CCC(N2C(=O)c3cnc(OCCOCCOCCOCCOCCOc4ccc(-c5ccc6c(c5)[nH]c5ccncc56)cn4)cc3C2=O)C(=O)N1 (stereo not drawn) [Compound 87, 6-((14-((5-(5H-pyrido[4,3-b]indol-7-yl)pyridin-2-yl)oxy)-3,6,9,12-tetraoxatetradecyl)oxy)-2-(2,6-dioxopiperidin-3-yl)-1H-pyrrolo[3,4-c]pyridine-1,3 (2H)-dione]",C (>80% tau protein remaining after 72 hours of incubation with the test compound)
10,"O=C1CCC(N2C(=O)c3ccc(OCCOCCOCCOCCOCCOc4ccc(-c5ccc6c7cnccc7n(CC(F)(F)F)c6c5)cn4)cc3C2=O)C(=O)N1 (stereo not drawn) [Compound 88, 2-(2,6-dioxopiperidin-3-yl)-5-((14-((5-(5-(2,2,2-trifluoroethyl)-5H-pyrido[4,3-b]indol-7-yl)pyridin-2-yl)oxy)-3,6,9,12-tetraoxatetradecyl)oxy)isoindoline-1,3-dione]",A (≤50% tau protein remaining after 72 hours of incubation with the test compound)
11,"Cn1c2ccncc2c2ccc(-c3ccc(OCCCCCOCCOC(CC4CCN(c5ccc6c(c5)C(=O)N(C5CCC(=O)NC5=O)C6=O)CC4)C(F)(F)F)nc3)cc21 (stereo not drawn) [Compound 89, 2-(2,6-dioxopiperidin-3-yl)-5-(4-(3,3,3-trifluoro-2-(2-((5-((5-(5-methyl-5H-pyrido[4,3-b]indol-7-yl)pyridin-2-yl)oxy)pentyl)oxy)ethoxy)propyl)piperidin-1-yl)isoindoline-1,3-dione]",C (>80% tau protein remaining after 72 hours of incubation with the test compound)
12,"Cn1c2ccncc2c2ccc(-c3ccc(OCC#CCOCCCCOCCCCOc4ccc5c(c4)C(=O)N(C4CCC(=O)NC4=O)C5=O)nc3)cc21 (stereo not drawn) [Compound 90, 2-(2,6-dioxopiperidin-3-yl)-5-(4-(4-((4-((5-(5-methyl-5H-pyrido[4,3-b]indol-7-yl)pyridin-2-yl)oxy)but-2-yn-1-yl)oxy)butoxy)butoxy)isoindoline-1,3-dione]",A (≤50% tau protein remaining after 72 hours of incubation with the test compound)
13,"Cn1c2ccncc2c2ccc(-c3ccc(O[C@H]4C[C@H](OCCCCCCCCN5CCN(c6ccc7c(c6)C(=O)N(C6CCC(=O)NC6=O)C7=O)CC5)C4)nc3)cc21 (stereo partly drawn) [Compound 91, 2-(2,6-dioxopiperidin-3-yl)-5-(4-(8-((1r,3r)-3-((5-(5-methyl-5H-pyrido[4,3-b]indol-7-yl)pyridin-2-yl)oxy)cyclobutoxy)octyl)piperazin-1-yl)isoindoline-1,3-dione]",C (>80% tau protein remaining after 72 hours of incubation with the test compound)
14,"Cn1c2ccncc2c2ccc(-c3cnc(OCCOCCOCCOCCOCCOc4ccc5c(c4)C(=O)N(C4CCC(=O)NC4=O)C5=O)c(Cl)c3)cc21 (stereo not drawn) [Compound 92, 5-((14-((3-chloro-5-(5-methyl-5H-pyrido[4,3-b]indol-7-yl)pyridin-2-yl)oxy)-3,6,9,12-tetraoxatetradecyl)oxy)-2-(2,6-dioxopiperidin-3-yl)isoindoline-1,3-dione]",A (≤50% tau protein remaining after 72 hours of incubation with the test compound)
15,"Cn1c2ccncc2c2ccc(-c3ccc(C(F)(F)COCCCCCOCCCCCCOc4ccc5c(c4)C(=O)N(C4CCC(=O)NC4=O)C5=O)nc3)cc21 (stereo not drawn) [Compound 93, 5-((6-((5-(2,2-difluoro-2-(5-(5-methyl-5H-pyrido[4,3-b]indol-7-yl)pyridin-2-yl)ethoxy)pentyl)oxy)hexyl)oxy)-2-(2,6-dioxopiperidin-3-yl)isoindoline-1,3-dione]",C (>80% tau protein remaining after 72 hours of incubation with the test compound)
16,"Cn1c2ccncc2c2ccc(-c3ccc(O[C@H]4C[C@H](Oc5ccc(C#CCCCOc6ccc7c(c6)C(=O)N(C6CCC(=O)NC6=O)C7=O)nc5)C4)nc3)cc21 (stereo partly drawn) [Compound 94, 2-(2,6-dioxopiperidin-3-yl)-5-((5-(5-((1r,3r)-3-((5-(5-methyl-5H-pyrido[4,3-b]indol-7-yl)pyridin-2-yl)oxy)cyclobutoxy)pyridin-2-yl)pent-4-yn-1-yl)oxy)isoindoline-1,3-dione]",C (>80% tau protein remaining after 72 hours of incubation with the test compound)
17,"Cn1c2ccncc2c2ccc(-c3ccc(O[C@H]4C[C@H](Oc5ccc(CCCCCOc6ccc7c(c6)C(=O)N(C6CCC(=O)NC6=O)C7=O)nc5)C4)nc3)cc21 (stereo partly drawn) [Compound 95, 2-(2,6-dioxopiperidin-3-yl)-5-((5-(5-((1r,3r)-3-((5-(5-methyl-5H-pyrido[4,3-b]indol-7-yl)pyridin-2-yl)oxy)cyclobutoxy)pyridin-2-yl)pentyl)oxy)isoindoline-1,3-dione]",C (>80% tau protein remaining after 72 hours of incubation with the test compound)
18,"Cn1c2ccncc2c2ccc(-c3ccc(O[C@H]4C[C@H](OCCCCCCN5CCN(c6ccc7c(c6)C(=O)N(C6CCC(=O)NC6=O)C7=O)CC5C(F)(F)F)C4)nc3)cc21 (stereo partly drawn) [Compound 96, 2-(2,6-dioxopiperidin-3-yl)-5-(4-(6-((1r,3r)-3-((5-(5-methyl-5H-pyrido[4,3-b]indol-7-yl)pyridin-2-yl)oxy)cyclobutoxy)hexyl)-3-(trifluoromethyl)piperazin-1-yl)isoindoline-1,3-dione]",B (≤80% and >50% tau protein remaining after 72 hours of incubation with the test compound)
